From US20220313873A1, “COLORED BIOLOGIC WOUND TREATMENT PROVIDING HEALING PROGRESS MONITORING” (KERECIS HF, priority 2021, published 2022)

Tests used:
cells = test: Preliminary cytotoxicity tests; conditions: preliminary tests by the inventors
[1] = Stability of coloring agents in decellularization (Decell) solution; format: physicochemical; conditions: 0.5 mL of 1% w/v color solution in 50 mL Decell solution
Description: A first set of experiments were conducted to determine the stability of various coloring agents within a decellularization solution (termed herein as “Decell solution”) used in the processing/manufacturing of Kerecis™ fish-skin-derived cellular scaffold products, which is made from the minimally processed skin of wild-caught Atlantic cod, as described in U.S. Pat. No. 8,613,957.
The Decell solution was prepared in accordance with EBL M222. 50 mL of the Decell solution was aliquoted into each of 7 separate plastic tubes securable with a respective lid. A first tube included only the Decell solution, acting as a control. A 0.5 mL aliquot of each of the 6 prepared color solutions was separately added to a corresponding tube containing 50 mL of Decell solution. Any reaction or visible change of the mixture was monitored over time.
The solutions in respective tubes with the respective coloring agents were monitored and documented by photographs at the start of the experiment, after 30 minutes, and after 24 hours of incubation.

Row | Structure (SMILES) | cytotoxicity (cells) | color of the Decell solution ([1]; after 24 hours) | fading of color in Decell solution ([1]; first 20 minutes)
1 | CN(C)c1ccc(C(=C2C=CC(=[N+](C)C)C=C2)c2ccc(N(C)C)cc2)cc1 [GV, gentian violet] | did not cause any cytotoxicity concern |  | 
2 | CN(C)c1ccc2nc3ccc(N(C)C)cc3[s+]c2c1.[Cl-] [Methylene Blue, methylene blue] | did not cause any cytotoxicity concern | had all turned white or nearly white except the Decell solution with the added Methylene Blue | notable exception
